{"source": "paper PMC6167001", "about": "(ACS Omega, 2018)", "origin": "cited, not measured here", "key": {"[1]": {"tested_on": "HIV-1 mutants bearing L76V", "details": "inclusion of L76V in mutants bearing three other resistance mutations"}, "[2]": {"target": "PRL76V (HIV-1 protease with mutation L76V)"}}, "data": [{"smiles": "Cc1cccc(C)c1OCC(=O)N[C@@H](Cc1ccccc1)[C@@H](O)C[C@H](Cc1ccccc1)NC(=O)[C@H](C(C)C)N1CCCNC1=O", "note": "[Compound 2, lopinavir]", "values": [{"measurement": "increase in resistance associated with L76V", "setting": "[1]", "result": "eightfold"}]}, {"smiles": "CC(C)(C)NC(=O)[C@@H]1C[C@@H]2CCCC[C@@H]2CN1C[C@@H](O)[C@H](Cc1ccccc1)NC(=O)[C@H](CC(N)=O)NC(=O)c1ccc2ccccc2n1", "note": "[Compound 6, saquinavir]", "values": [{"measurement": "increase in susceptibility associated with L76V", "setting": "[1]", "result": "eightfold"}]}, {"smiles": "COc1ccc(S(=O)(=O)N(C[C@H]2CCC(=O)N2)C[C@@H](O)[C@H](Cc2ccccc2)NC(=O)O[C@@H]2C[C@@H]3CCO[C@@H]3C2)cc1", "note": "[GRL-02031]", "values": [{"measurement": "increase in inhibition constant (Ki) for PRL76V in comparison to PRWT", "setting": "[2]", "result": "twofold"}]}]}
